“Also recorded” adds a separate entry of the source.

Experimental findings from publication PMC5681654, “Dual protein kinase and nucleoside kinase modulators for rationally designed polypharmacology” (Nature Communications, 2017) are described below.

Assay [1] addresses dCK-C3S-S74E (Homo sapiens, UniProt P27707, C45S/C59S/C9S/S74E). The assay is described as follows: Isothermal titration calorimetry (ITC).
Method: ITC was used to evaluate the binding between dCK-C3S-S74E and the selected compounds. […] Purified dCK-C3S-S74E and the compounds were diluted in the ITC buffer containing 20 mM HEPES, pH 7.5, and 200 mM NaCl. Titrations were carried out on a MicroCal ITC200 microcalorimeter (GE Healthcare) at 25 °C using 16 or 24 injections of the titrant (1−3 mM compound in the syringe) into the analyte (100 or 300 μM protein in the cell). A first small injection (0.2 μl) was included in the titration protocol in order to remove air bubbles trapped in the syringe prior titration. Because of the low solubility of several ligands, sequential titrations were employed to achieve sufficient molar ratios for reliable model fitting, and these titrations were linked together prior to data analysis using ConCat32 software (Microcal). Raw data were scaled after setting the zero to the titration saturation heat value.
Assay [2] addresses recombinant human dCK (Homo sapiens, UniProt P27707). The assay can be described thus: dCK kinetic assay (PK/LDH coupled, UTP as phosphate donor). As to conditions: for effect on dCK enzymatic phosphorylation of gemcitabine: Supplementary Fig. 8; for effect on nucleoside phosphorylation by dCK: substrates 2′dC and gemcitabine, UTP, inhibitor/protein ratio 22.
Method: Kinetic analyses were performed using a spectrophotometric continuous enzymatic-coupled assay using pyruvate kinase (PK) and lactate dehydrogenase (LDH). […] All measurements were performed on a BMG Labtech Pherastar FS apparatus. All assays were performed in triplicate and each experiment was performed at least twice. The data are presented as mean ± s.d. The results were plotted as kinetics and the velocity was determined for each condition as the slope of the linear range of the curve. […] K m (Michaelis−Menten constant) and V max (maximal velocity) values were determined using PRISM software (GraphPad Software Inc.) by fitting the experimental data according to the Michaelis−Menten approximation defined as Equation 1.1 V=Vmax⋅S∕Km+S
The subject of assay [3] is HRT18 (colon) cancer cell line. The assay is described as follows: Cell proliferation assay (CellTiter-Blue), HRT18. Type of assay: cell-based, human. In general terms: Resazurin is reduced to fluorescent resorufin, in cell work by metabolically active cells.
Method: (§1) At the end of incubation, 10 µl of CellTiter-Blue Reagent were added to each well. The absorbance was read at 590 nm. The effect of the drugs on cells was expressed as a percentage of proliferation compared to untreated cells. […] Drug synergy effects were analysed using Combenefit (Cancer Research Cambridge Institute), a software tool that enables the visualisation, analysis and quantification of drug combination effects[49]. The data from combination treatments were processed using three synergy reference models: highest single agent (HSA) model, Loewe additivity model and Bliss independence model for HRT18 and LnCAP cell lines.
In assay [4] the test system is A549 (lung) cancer cell line. The assay can be described thus: Cell proliferation assay (CellTiter-Blue), A549. Type of assay: cell-based, human. As to conditions: gemcitabine 0−100 µM or masitinib 0−10 µM alone, 5 days.
Method: as §1
For assay [5], the system named is CHO dCK Rescue cells (partially reconstituted dCK). The assay can be described thus: Cell proliferation assay (CellTiter-Blue), CHO dCK Rescue. Conditions: CHO dCK Rescue (low dCK expression); gemcitabine 0−1 µM; 5 days. Type of assay: cell-based, Chinese hamster.
Method: At the end of incubation, 10 µl of CellTiter-Blue Reagent were added to each well. The absorbance was read at 590 nm. The effect of the drugs on cells was expressed as a percentage of proliferation compared to untreated cells.
CHO dCK deficient cells (CHO dCK-) were plated in 96-well plates at a density of 5000 cells per well and incubated overnight. The cells were transfected with the pMSCV insert free (vector control) and pMSCV-dCK respectively, using FuGENE 6 Transfection Reagent (Promega) according to manufacturer recommendations. Two days after transfection, cells were plated in 6-well plates and selected in 1 mg ml^-1 Geniticin-G418 (Gibco) for 2 weeks. The positive clones were picked and expanded to establish cell lines. The stable transfection cell clones, named as CHO dCK Rescue, were controlled by western blot analysis for dCK expression levels.
For assay [6], the system named is CHO cells (constitutive dCK). The assay is described as follows: Cell proliferation assay (CellTiter-Blue), CHO. In kind it is cell-based, Chinese hamster. Conditions: gemcitabine 0−1 µM, 5 days.
Method: as §1
The test system of assay [7] is LNCaP (prostate) cancer cell line. The assay is described as follows: Cell proliferation assay (CellTiter-Blue), LNCaP. Type of assay: cell-based, human.
Method: as §1
In assay [8] the test system is CHO dCK- cells (deficient dCK). The assay can be described thus: Cell proliferation assay (CellTiter-Blue), CHO dCK-. Type of assay: cell-based, Chinese hamster. Conditions: gemcitabine 0−1 µM, 5 days.
Method: as §1
Assay [9] has as its target biotinylated dCK-C3S-S74E (Homo sapiens, UniProt P27707, C45S/C59S/C9S/S74E). The assay can be described thus: Bio-layer interferometry kinetics, immobilised biotinylated dCK. Background: In BLI a coated tip is dipped into the sample, and binding shifts an interference pattern.
Method: BLI measurements were carried out using an Octet RED96 instrument (ForteBio). Biotinylated dCK was immobilised on SSA biosensors at a concentration of 5 μM after 1200 s. Free streptavidin sites were blocked by incubating with 10 μg ml^−1 biocytin (Sigma-Aldrich) for 100 s and 1% BSA for 1000 s. A control set of SSA biosensors were prepared in parallel by blocking the surface with biocytin instead of protein. A three-point concentration series were prepared for each compound and were measured using 60 s association and 140 s dissociation steps at 30 °C with a shake speed of 1000 r.p.m. All measurements were performed in binding buffer containing 20 mM HEPES, pH 7.5, 200 mM NaCl, 0.1% BSA and 1% DMSO. Each experiment was performed at least twice and K D, k on and k off values were determined using the global fitting procedure in the ForteBio Data Analysis Software.
Assay [10] deals with T1, uridine-cytidine kinase 1 (UCK1) (Homo sapiens, UniProt Q9HA47).
T1 construct: made in house; host or cells: E. coli BL21 DE3
T1 sequence (Q9HA47 1-277): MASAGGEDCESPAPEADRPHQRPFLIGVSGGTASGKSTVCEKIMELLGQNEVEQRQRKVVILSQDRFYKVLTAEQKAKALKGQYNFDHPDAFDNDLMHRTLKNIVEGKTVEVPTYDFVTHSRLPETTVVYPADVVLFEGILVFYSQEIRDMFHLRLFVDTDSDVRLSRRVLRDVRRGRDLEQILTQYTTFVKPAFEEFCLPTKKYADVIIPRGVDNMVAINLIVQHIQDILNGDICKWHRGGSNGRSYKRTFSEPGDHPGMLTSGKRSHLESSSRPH
The assay is described as follows: UCK1 kinetic assay (PK/LDH coupled, ATP as phosphate donor). In kind it is biochemical. Conditions: masitinib/protein ratios 0, 1, 10, 100. Here is the method: Kinetic analyses were performed using a spectrophotometric continuous enzymatic-coupled assay using pyruvate kinase (PK) and lactate dehydrogenase (LDH). […] . […] All assays were performed in triplicate and each experiment was performed at least twice. The data are presented as mean ± s.d. The results were plotted as kinetics and the velocity was determined for each condition as the slope of the linear range of the curve. […] . K m (Michaelis−Menten constant) and V max (maximal velocity) values were determined using PRISM software (GraphPad Software Inc.) by fitting the experimental data according to the Michaelis−Menten approximation defined as Equation 1.1 V=Vmax⋅S∕Km+S

Assay [11] concerns the target T2, thymidine kinase (TK1) (Homo sapiens, UniProt P04183).
T2 sequence (P04183 2-234 limits assumed): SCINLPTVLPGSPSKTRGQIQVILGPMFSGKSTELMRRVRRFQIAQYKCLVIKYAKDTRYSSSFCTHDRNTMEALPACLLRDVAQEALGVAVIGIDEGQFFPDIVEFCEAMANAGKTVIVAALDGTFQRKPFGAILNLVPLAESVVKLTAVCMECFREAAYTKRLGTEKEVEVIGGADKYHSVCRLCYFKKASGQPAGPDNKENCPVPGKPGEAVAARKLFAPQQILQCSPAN
The assay is described as follows: TK1 kinetic assay (HTRF Transcreener ADP assay). Conditions: masitinib/protein ratios 1, 5, 10, 20, 40. On the technique in general: Time-resolved FRET reads energy transfer from a long-lived donor to a nearby acceptor.
Method: ADP and ADP-d2 compete for the binding to a monoclonal anti-ADP antibody labelled with Europium (Eu^3+) cryptate. […] The obtained signal is inversely proportional to the concentration of ADP in the sample. All measurements were performed on a BMG Labtech Pherastar FS apparatus.

recombinant human dCK, sequence (P27707 whole entry): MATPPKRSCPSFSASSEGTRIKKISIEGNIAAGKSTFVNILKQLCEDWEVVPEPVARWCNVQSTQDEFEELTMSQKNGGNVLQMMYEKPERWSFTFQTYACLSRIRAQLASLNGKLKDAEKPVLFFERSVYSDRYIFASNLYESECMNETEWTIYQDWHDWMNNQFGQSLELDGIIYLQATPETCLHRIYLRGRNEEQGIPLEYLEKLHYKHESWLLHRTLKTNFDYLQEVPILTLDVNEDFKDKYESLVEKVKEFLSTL
dCK-C3S-S74E, sequence (P27707 whole entry C9S/C45S/C59S/S74E): as the sequence (P27707 whole entry) above, with C9S, C45S, C59S, S74E counted along it
biotinylated dCK-C3S-S74E, sequence (P27707 whole entry C9S/C45S/C59S/S74E): as the sequence (P27707 whole entry) above, with C9S, C45S, C59S, S74E counted along it

In the case of `Nc1ncn([C@H]2C[C@H](O)[C@@H](CO)O2)c(=O)n1` [Decitabine, decitabine], in assay [1], binding was put at a Kd of 31 ± 5.4 µM.
Consider `CNC(=O)c1ccccc1Sc1ccc2c(/C=C/c3ccccn3)n[nH]c2c1` [axitinib], for which the “effect on dCK enzymatic phosphorylation of gemcitabine” value (“effect … of gemcitabine” for short) in assay [2] is “none of the compounds showed an activation effect”.
On to `Cc1ccc(NC(=O)c2ccc(CN3CC[C@H](N(C)C)C3)c(C(F)(F)F)c2)cc1Nc1nccc(-c2cncnc2)n1` [bafetinib], for which, in assay [2], the “effect on nucleoside phosphorylation by dCK” value (from here on “effect … by dCK”) is reported as “most active”.
For `COc1cc(Nc2c(C#N)cnc3cc(OCCCN4CCN(C)CC4)c(OC)cc23)c(Cl)cc1Cl` [bosutinib], the “effect … by dCK” value in assay [2] is reported as “most active”.
With `C#Cc1cccc(Nc2ncnc3cc(OCCOC)c(OCCOC)cc23)c1` [erlotinib], in assay [2], the “effect … of gemcitabine” value is given as “none of the compounds showed an activation effect”.
On to `Nc1ccn([C@@H]2O[C@H](CO)[C@@H](O)C2(F)F)c(=O)n1` [gemcitabine], for which the “anti-proliferative effect, single agent” value in [3] (gemcitabine 0−100 µM or masitinib 0−10 µM alone, 5 days) is listed as “could not induce strong anti-proliferative effects”; in assay [4], “could not induce strong anti-proliferative effects”; in assay [7] (LNCaP, gemcitabine 0−100 µM or masitinib 0−10 µM alone, 5 days) it was “could not induce strong anti-proliferative effects”. Further, binding in assay [1] was put at a Kd of 22.2 µM. Besides, the sensitivity to gemcitabine entry was “restored the capacity of CHO cells to respond to gemcitabine treatment” in assay [5], “strong sensitivity to gemcitabine” in assay [6] and “did not show any anti-proliferative effect” in assay [8]. Besides, the “BLI signal for substrate binding” value in assay [9] was “could not detect any signal”.
With `Cc1ccc(NC(=O)c2ccc(CN3CCN(C)CC3)cc2)cc1Nc1nc(-c2cccnc2)cs1` [masitinib], the “drug synergy with gemcitabine (Combenefit: HSA, Loewe, Bliss models)” value in assay [3] and in assay [7] (LnCAP) was “synergetic effect” throughout. For the same compound, the “modulation of UCK1 enzymatic activity” value in assay [10] is on record as “didn’t produce an enzymatic modulation; also recorded: did not observe an enzymatic activation”. In addition, in assay [11], the “modulation of TK1 enzymatic activity” value is on record as “didn’t produce an enzymatic modulation; also recorded: did not observe an enzymatic activation”.
As to `CN[C@@H]1C[C@H]2O[C@@](C)([C@@H]1OC)n1c3ccccc3c3c4c(c5c6ccccc6n2c5c31)C(=O)NC4` [staurosporine], the “effect … of gemcitabine” value in [2] was “none of the compounds showed an activation effect”.
On to `Cc1cc(Nc2cc(N3CCN(C)CC3)nc(Sc3ccc(NC(=O)C4CC4)cc3)n2)[nH]n1` [tozasertib], for which the “effect … by dCK” value in assay [2] is “most active”.
